Measured values reported in US7723380B2, “Antiviral protease inhibitors” (Gilead Sciences, Inc., priority 2006, dated 2010).

Biological target: T1, recombinant HIV-1 protease expressed in E. Coli (Human immunodeficiency virus type 1 group M subtype B, UniProt P04585)
T1 construct: Enzyme: recombinant HIV-1 protease expressed in E. Coli; purchased Bachem California, Inc. (Torrance, Calif.) H-9040; host or cells: E. coli
Experiment: HIV-1 Protease Enzyme Assay (Ki), fluorimetric detection of hexapeptide substrate cleavage
Assay type: biochemical
Details: recombinant HIV-1 protease 1 to 2.5 nM, substrate 40 μM, pH 5.3, 37° C., tight-binding competitive inhibition
Text: Biological Assays Used for the Characterization of HIV Protease Inhibitors HIV-1 Protease Enzyme Assay (Ki)
The assay is based on the fluorimetric detection of synthetic hexapeptide substrate cleavage by HIV-1 protease in a defined reaction buffer as initially described by M. V. Toth and G. R. Marshall, Int. J. Peptide Protein Res. 36, 544 (1990)
Substrate: (2-aminobenzoyl)Thr-Ile-Nle-(p-nitro)Phe-Gln-Arg
Substrate supplied by Bachem California, Inc. (Torrance, Calif.; Cat. no. H-2992)
Enzyme: recombinant HIV-1 protease expressed in E. Coli
Enzyme supplied by Bachem California, Inc. (Torrance, Calif.; Cat. no. H-9040)
Reaction buffer: 100 mM ammonium acetate, pH 5.3
• 1 M sodium chloride • 1 mM ethylendiaminetetraacetic acid • 1 mM dithiothreitol • 10% dimethylsulfoxide Assay Protocol for the Determination of Inhibition Constant Ki: • 1. Prepare series of solutions containing identical amount of the enzyme (1 to 2.5 nM) and a tested inhibitor at different concentrations in the reaction buffer • 2. Transfer the solutions (190 μL each) into a white 96-well plate • 3. Preincubate for 15 min at 37° C. • 4. Solubilize the substrate in 100% dimethylsulfoxide at a concentration of 800 μM. Start the reaction by adding 10 μL of 800 μM substrate into each well (final substrate concentration of 40 μM) • 5. […]

In the case of CCOP(=O)(COc1ccc(C[C@H](NC(=O)O[C@H]2CO[C@H]3OCC[C@H]32)[C@@H](O)CN(Cc2ccc(-c3ccccn3)cc2)NC(=O)[C@@H](NC(=O)OC)C(C)(C)C)cc1)OCC [Example AY], the Ki is reported as < 0.03 nM.
